Legend:
eosinophil peroxidase = assay: Ring-bromination of L-tyrosine by isolated EPO at physiological levels of halides; type: biochemical; conditions: molar excess in reaction mixtures
Procedure: Reactions were initiated by addition of oxidant (H2O2, HOBr, N-bromo or N,N-dibromo amine) and performed in sodium phosphate buffer (pH 7.0) at 37° C. for 60 min. Proteins oxidized in vitro were prepared for analysis by first precipitating and desalting them in a single-phase extraction mixture comprised of H2O:methanol:H2O-saturated diethyl ether (1:3:7, v:v:v) as described in Hazen, S. L., Hsu, F. F., Gaut, J. P., Crowler, J. R. and Heinecke, J. W. “Modification of Proteins and Lipids by Myeloperoxidase-Derived Oxidants” In: Methods of Enzymology, Edited by Lester Packer, Vol. 300, pp. 88-106. Academic Press, Inc., San Diego. 1999, followed by acid hydrolysis in methane sulfonic acid.
Quantitative determination of 3-bromotyrosine and 3,5-dibromotyrosine production from free L-tyrosine was performed utilizing reverse-phase HPLC with a C18 column (Beckman Ultrasphere, 5 μm resin, 4.6×250 mm) equilibrated with solvent A (0.1% trifluoroacetic acid, pH 2.5). […] 3-Bromotyrosine and 3,5-dibromotyrosine were monitored on a diode array detector and quantified at 280 nm employing a standard curve constructed with authentic synthetic standards.
The ability of isolated EPO and MPO to form 3-bromotyrosine and 3,5-dibromotyrosine in the presence of physiological levels of halides was evaluated. […]

[1] = tested on: eosinophil peroxidase-H2O2—Br− system; assay: 3-Bromotyrosine formation in BSA incubated with activated phagocytes (eosinophils); type: cell-based; conditions: BSA with phorbol ester activated cells, plasma levels of bromide
Procedure: Reactions were initiated by addition of oxidant (H2O2, HOBr, N-bromo or N,N-dibromo amine) and performed in sodium phosphate buffer (pH 7.0) at 37° C. for 60 min. Proteins oxidized in vitro were prepared for analysis by first precipitating and desalting them in a single-phase extraction mixture comprised of H2O:methanol:H2O-saturated diethyl ether (1:3:7, v:v:v) as described in Hazen, S. L., Hsu, F. F., Gaut, J. P., Crowler, J. R. and Heinecke, J. W. “Modification of Proteins and Lipids by Myeloperoxidase-Derived Oxidants” In: Methods of Enzymology, Edited by Lester Packer, Vol. 300, pp. 88-106. Academic Press, Inc., San Diego. 1999, followed by acid hydrolysis in methane sulfonic acid. […]
L-Tyrosine, 3-bromotyrosine and 3,5-dibromotyrosine generated by phagocytes and human tissues were quantified by stable isotope dilution GC/MS in the negative-ion chemical ionization mode. n-Propyl, per heptafluorobutyryl (HFB) derivatives of amino acids were prepared by standard methods and analyzed on a Perkin Elmer TurboMass mass spectrometer equipped with chemical ionization probe. […] 3-Bromotyrosine was monitored as its n-propyl per HFB derivative using two structurally informative fragment ions, m/z 573 (M-HF)^− and m/z 445 (M-CF3CF2CHO)^− and their corresponding isotopically labeled [^13C6] internal standard ions at m/z 579 and 451, respectively. […]

[2] = Chemical stability of L-tyrosine oxidation products (Peaks I and II) of the EPO-H2O2-Br- system; conditions: to acid, peroxide, reductants and nucleophilic compounds; prolonged incubation at 37° C. with H2O2

Row | Compound | effect on 3-bromotyrosine production [1] | further results
1 | NCCS(=O)(=O)O [taurine] | – | effect on ring-bromination by EPO (eosinophil peroxidase): augmented
2 | catalase | inhibited | –
3 | N[C@@H](Cc1cc(Br)c(O)c(Br)c1)C(=O)O (single isomer, unassigned) [3,5-dibromotyrosine] | – | chemical stability of the product [2]: stable
4 | [N-]=[N+]=[N-].[Na+] [NaN3] | inhibited | –

Source: patent US20050142626A1, “Diagnostic methods for asthma” (priority 1999, published 2005)
